In US8039617B2, “Method for producing alpha form crystals of sapropterin hydrochloride” (Shiratori Pharmaceutical Co., Ltd., priority 2005, dated 2011):
Structures can show the parent of a compound that is named as a salt.

How the values were obtained:
[1] = moisture absorption during storage; assay type: physicochemical; settings: for color change due to moisture absorption: hydrochloride
Description: With regard to moisture absorption, α form crystal undergoes increase in weight by moisture absorption of 0.85 to 2% during storage for 14 days under the conditions of 25° C. and at relative humidity of 20 to 75%. […] On the other hand, weight of the β form crystal gradually increases under the conditions of 25° C. and a relative humidity of 60%, and weight increase is 3.5% at 18 hours and the increase continues to the maximum of 3.9%. From this, α form crystal is more moisture-stable than β form. […] Accordingly, α form crystal is suitable for storage.

[2] = assay type: physicochemical
Description: Furthermore, in differential thermal analysis, α form crystal has only one endothermic peak near the 250° C. as shown in FIG. 5 while β form crystal has two endothermic peaks near 180° C. and near 230° C. as shown in FIG. 6.

Row | course of weight increase over storage ([1]; 25° C., relative humidity of 20 to 75%, day 1 to day 14) | endothermic peak in differential thermal analysis (thermal stability) [2] [°C] | weight increase by moisture absorption ([1]; 25° C., relative humidity of 60%, at 18 hours) [%] | maximum weight increase by moisture absorption ([1]; 25° C., relative humidity of 60%, maximum) [%] | SMILES | color change due to moisture absorption [1]
1 | stable from day 1 to day 14 | ~250 |  |  | C[C@H](O)[C@H](O)[C@H]1CNc2nc(N)[nH]c(=O)c2N1 [α form crystal, sapropterin hydrochloride] | does not change its color
2 |  |  | 3.5 | 3.9 | C[C@H](O)[C@H](O)[C@H]1CNc2nc(N)[nH]c(=O)c2N1 [β form crystal, sapropterin hydrochloride] | changes the color from white to pale yellow
